Measured values as given in PMC12297138, “Screening and Identification of Multiple Peptides Homologous to the Fusion Glycoprotein Gc of Schmallenberg Virus Able to Inhibit Viral Infection” (Transboundary and Emerging Diseases, 2025).

Tests used:
[1] = system: Schmallenberg virus (SBV); experiment: Cotreatment assay (plaque reduction); type: cell-based; details: for percentage of viral inhibition at 100 μM (library screening): cotreatment, peptide 100 μM, SBV on BHK-21 cells, threshold 50% inhibition; for IC50: peptide + SBV (MOI 0.01) together on BHK-21 cells 2 h 37°C, plaques after 72 h, triplicate; for SI, Cotreatment: selectivity index CC50 value/IC50 value
Text: Baby Hamster Kidney cells (BHK-21) (ATCC CCL-10, Manassas, VA, USA), Madin–Darby bovine kidney (MDBK, ATCC CCL-22), and Vero/hSLAM cells (ECACC 04091501, Porton Down, United Kingdom) were cultivated in Dulbecco's modified Eagle's medium (DMEM, Microtech, Naples, Italy) supplemented with 10% fetal bovine serum (FBS) (Microtech). Viruses were kindly provided by Professor Giuseppe Iovane (University Federico II, Naples, Italy). Cells were infected with a multiplicity of infection (MOI) of 0.01, and we assessed viral titers through plaque assays.
SBV titration was performed on BHK-21 cells. Briefly, BHK-21 cell monolayers in 12-well cell culture plates were infected with SBV dilutions. After 1 h of incubation, viral inocula were removed and a mixture of DMEM 10% FBS and 3% carboxymethyl cellulose (CMC) was added to all wells. After incubation for 72 h, cells were fixed with 4% formaldehyde solution and stained with 0,5% crystal violet (Sigma-Aldrich, St. Louis, MO, USA). Plaques were scored and stock virus titration was calculated as plaque forming unit (PFU)/ml.
Peptides were dissolved in water. To assess the impact of these peptides on inhibiting SBV infectivity, a very general assay (cotreatment) was performed by treating cells (5 × 10^5 cells/well) with peptides at 200, 100, 50, 25, 12.5, 6.25, and 1 μM and incubating them with the viral inoculum (MOI of 0.01) for 2 h at 37°C. To effectively inactivate nonpenetrated viruses, we treated cells with citrate buffer (pH 3.0) and then cultured BHK-21 for 72 h at 37°C/5% CO2 in DMEM enriched with 10% FBS and CMC. The monolayers were finally fixed and stained, and the plaque number was scored. The percentage of inhibition was calculated in comparison to the control group (cell infected and treated with no peptide).

[2] = system: Schmallenberg virus (SBV); experiment: Virus pretreatment assay (plaque reduction); type: cell-based; details: for IC50: peptide + SBV (MOI 0.1) 1 h 37°C, then diluted on BHK-21 cells (final MOI 0.01), plaques after 72 h; for SI, Virus pretreatment: selectivity index CC50 value/IC50 value
Protocol: (§1) Peptide concentrations are the same as used in the initial cotreatment assay. Virus pretreatment assay: peptides were added to the virus (MOI of 0.1) for 1 h at 37°C. Following the incubation period, the mixture of virus and peptide was diluted on cells for 2 h: this process allowed the peptides to achieve a nonactive concentration while ensuring that the virus remained at an optimal final MOI of 0.01. Then, the cells underwent a 72-h incubation with CMC. Cell pretreatment: Precooled cells were treated with the peptides for 1 h, followed by the incubation of the viral inoculum (MOI of 0.01) for 2 hr at 37°C. At the end, cells were overlaid with CMC for 72 hr at 37°C. Posttreatment: Cells were treated with peptide following the viral infection (MOI of 0.01 pfu/mL) for 2 h at 37°C; then, CMC was added for 72 h at 37°C. For each treatment, the IC50, which is the peptide concentration resulting in a 50% reduction of SBV infectivity, was calculated.

[3] = system: Schmallenberg virus (SBV); experiment: Attachment assay (temperature shift); type: cell-based; details: for IC50: BHK-21 cells, SBV MOI 0.01 and peptide simultaneously 2 h at 4°C, plaques after 72 h at 37°C; for SI, Attachment: selectivity index CC50 value/IC50 value
Protocol: (§2) Two additional assays were performed. Peptide concentrations are the same as those used in the other treatments. Attachment assay: Cells were infected with the virus (MOI 0.01) and simultaneously each peptide was inoculated for 2 h at 4°C; then, cells were left in CMC for 72 h at 37°C. Entry assay: BHK-21 monolayer was infected with SBV (MOI 0.01) for 2 h at 4°C, followed by the treatment with each peptide for 1 h at 37°C; finally, CMC was added on cells. Similarly to other assays, at the end, viral plaques were observed.

[4] = system: Schmallenberg virus (SBV); experiment: Entry assay (temperature shift); type: cell-based; details: for IC50: BHK-21 infected with SBV MOI 0.01 2 h at 4°C, then peptide 1 h at 37°C, plaque count; for SI, Entry: selectivity index CC50 value/IC50 value
Protocol: as §2

BHK-21 cells = experiment: MTT cytotoxicity assay; type: cell-based, Hamster; details: 24 h treatment, peptides 1-200 µM, read at 570 nm, triplicate
Protocol: Peptide cytotoxicity was measured by 3- (4, 5-dimethylthiazol-2-yl)-2, 5-diphenyltetrazolium bromide (MTT) assay according to manufacturer's instructions (Sigma-Aldrich, St. Louis, Missouri, United States). BHK-21 cells (4 × 10^4 cells/well) were treated with peptides at different concentrations ranging from 1 µM to 200 and, after 24 h, 100 μL of the MTT solution (5 mg/mL) was incubated for 3 h at 37°C. Then, we used DMSO (Sigma Aldrich) to dissolve tetrazolium salts under agitation. Cytotoxicity was analyzed at 570 nm, and cell viability was measured against control cells—those that received no treatment. At the end, the 50% cytotoxic concentration (CC50) was determined using GraphPad Prism software (GraphPad Software, San Diego, CA, USA).

[5] = system: Schmallenberg virus (SBV); experiment: Cell pretreatment assay (plaque reduction); type: cell-based; details: precooled BHK-21 cells treated with peptide 1 h, then SBV MOI 0.01 for 2 h 37°C; plaques after 72 h
Protocol: as §1

[6] = system: Schmallenberg virus (SBV); experiment: Posttreatment assay (plaque reduction); type: cell-based; details: BHK-21 cells treated with peptide after SBV infection (MOI 0.01, 2 h 37°C); plaques after 72 h
Protocol: as §1

SMILES | percentage of viral inhibition at 100 μM (library screening) [1] | IC50 [1] [µM] | IC50 [2] [µM] | IC50 [3] [µM] | IC50 [4] [µM] | CC50 (BHK-21 cells) [µM] | SI, Cotreatment [1] | IC50 [5] [µM] | SI, Virus pretreatment [2] | SI, Attachment [3] | SI, Entry [4] | IC50 [6] [µM]
CC[C@H](C)[C@H](NC(=O)[C@@H](NC(=O)[C@H](CC(C)C)NC(=O)[C@@H](NC(=O)[C@H](CC(N)=O)NC(=O)[C@H](CC(=O)O)NC(=O)[C@H](CCC(N)=O)NC(=O)[C@H](CCC(=O)O)NC(=O)[C@H](CC(C)C)NC(=O)[C@H](CC(C)C)NC(=O)[C@H](CC(C)C)NC(=O)[C@H](CS)NC(=O)[C@H](CO)NC(=O)[C@H](CCC(N)=O)NC(=O)[C@@H](N)Cc1ccc(O)cc1)[C@@H](C)O)[C@@H](C)O)C(=O)N[C@@H](C)C(=O)N[C@@H](CO)C(=O)N[C@H](C(=O)N[C@@H](CO)C(=O)N[C@@H](Cc1c[nH]cn1)C(=O)N[C@@H](CCSC)C(=O)N[C@@H](CCC(=O)O)C(=O)N[C@H](C(=O)N[C@@H](Cc1c[nH]cn1)C(=O)N[C@@H](CCCCN)C(=O)O)C(C)C)[C@@H](C)O [Gc49] | greater than 50% | 10 | 10 | 25 | 20 | 200 | – | – | – | – | – | –
CC[C@H](C)[C@H](NC(=O)[C@@H](NC(=O)[C@H](CC(=O)O)NC(=O)[C@H](CCCCN)NC(=O)[C@H](CCCNC(=N)N)NC(=O)[C@H](CC(N)=O)NC(=O)[C@@H](N)Cc1ccccc1)C(C)C)C(=O)N[C@@H](CC(C)C)C(=O)N[C@@H](CCCNC(=N)N)C(=O)N[C@@H](CCCNC(=N)N)C(=O)N[C@@H](CS)C(=O)N[C@@H](Cc1ccccc1)C(=O)N[C@@H](CC(=O)O)C(=O)N[C@@H](CC(N)=O)C(=O)N[C@@H](CO)C(=O)N[C@@H](Cc1ccc(O)cc1)C(=O)N[C@@H](CCC(N)=O)C(=O)N[C@@H](CO)C(=O)N[C@@H](CS)C(=O)N[C@@H](CC(C)C)C(=O)N[C@@H](CC(C)C)C(=O)N[C@@H](CC(C)C)C(=O)N[C@@H](CCC(=O)O)C(=O)N[C@@H](CCC(N)=O)C(=O)N[C@@H](CC(=O)O)C(=O)O [Gc48] | – | – | – | – | – | – | 2 | > 100 | 4 | 2 | 4 | > 100
CC[C@H](C)[C@H](NC(=O)[C@H](CO)NC(=O)[C@@H](N)Cc1ccc(O)cc1)C(=O)N[C@@H](CCCCN)C(=O)N[C@@H](CC(C)C)C(=O)N[C@@H](CC(N)=O)C(=O)N[C@@H](CS)C(=O)N1CCC[C@H]1C(=O)N[C@@H](CC(C)C)C(=O)N[C@@H](C)C(=O)N[C@H](C(=O)N[C@@H](CCC(=O)O)C(=O)N[C@H](C(=O)N[C@H](C(=O)N[C@@H](CO)C(=O)N[C@H](C(=O)N[C@@H](CO)C(=O)N[C@H](C(=O)N[C@@H](CS)C(=O)N[C@@H](CO)C(=O)N[C@@H](C)C(=O)N[C@@H](CO)C(=O)N[C@@H](C)C(=O)N[C@@H](Cc1ccc(O)cc1)C(=O)N[C@H](C(=O)O)[C@@H](C)O)C(C)C)C(C)C)C(C)C)[C@@H](C)O)[C@@H](C)O [Gc56] | greater than 50% | 100 | 40 | 50 | 40 | 200 | – | – | – | – | – | –
CC[C@H](C)[C@H](NC(=O)[C@H](CC(=O)O)NC(=O)[C@H](CO)NC(=O)[C@H](CCC(N)=O)NC(=O)[C@H](CC(C)C)NC(=O)[C@H](C)NC(=O)[C@H](C)NC(=O)[C@@H](NC(=O)[C@H](Cc1ccc(O)cc1)NC(=O)[C@H](CC(N)=O)NC(=O)[C@H](CCC(=O)O)NC(=O)[C@@H](NC(=O)[C@H](CC(=O)O)NC(=O)[C@@H]1CCCN1C(=O)[C@H](Cc1c[nH]cn1)NC(=O)[C@@H](N)CC(N)=O)[C@@H](C)CC)[C@@H](C)CC)C(=O)N[C@@H](C)C(=O)N[C@@H](CC(N)=O)C(=O)N[C@@H](CC(=O)O)C(=O)N[C@@H](CC(C)C)C(=O)N[C@H](C(=O)N[C@@H](CCSC)C(=O)N[C@@H](Cc1c[nH]cn1)C(=O)N[C@@H](Cc1ccc(O)cc1)C(=O)N[C@@H](Cc1ccccc1)C(=O)O)[C@@H](C)O [Gc30] | greater than 50% | 12.5 | 20 | 50 | 20 | – | – | – | – | – | – | –
CC[C@H](C)[C@H](NC(=O)CNC(=O)[C@H](CCC(=O)O)NC(=O)[C@H](CCCCN)NC(=O)[C@H](Cc1ccc(O)cc1)NC(=O)[C@@H](NC(=O)[C@H](CCCNC(=N)N)NC(=O)[C@H](CS)NC(=O)[C@H](CC(C)C)NC(=O)[C@H](Cc1c[nH]c2ccccc12)NC(=O)[C@@H](NC(=O)[C@H](CO)NC(=O)[C@H](CS)NC(=O)[C@H](CCCCN)NC(=O)[C@H](CCCCN)NC(=O)[C@H](CC(=O)O)NC(=O)[C@H](Cc1c[nH]cn1)NC(=O)[C@H](CCC(N)=O)NC(=O)[C@H](CCC(=O)O)NC(=O)[C@@H](NC(=O)[C@@H](N)Cc1ccc(O)cc1)[C@@H](C)CC)[C@@H](C)O)C(C)C)C(=O)N[C@@H](CO)C(=O)N[C@H](C(=O)N[C@H](C(=O)N[C@@H](Cc1ccccc1)C(=O)O)[C@@H](C)CC)C(C)C [Gc59] | – | – | – | – | – | – | 4 | > 100 | 5 | 3.6 | 5.7 | > 100
